Paper PMC10584170, “Machine learning-based phenotypic imaging to characterise the targetable biology of Plasmodium falciparum male gametocytes for the development of transmission-blocking antimalarials” (PLOS Pathogens, 2023)
Like-named read-outs stand apart in the source and are kept apart here.

Experiments:
[1] = tested on: P. falciparum female gametocytes; experiment: P. falciparum Dual Gamete Formation Assay (PfDGFA), female readout (Pfs25-positive female gametes); format: cell-based, Plasmodium falciparum NF54; settings: for Selectivity ratio F: HepG2 Tox50 versus female IC50; for inhibition at 2 µM / Average inhibition female (%) / % inhibition female (individual replicates) R1 / % inhibition female (individual replicates) R3 / % inhibition female (individual replicates) R4: 24h preincubation with gametocytes; for IC50: PfDGFA, 24 h incubation with gametocytes before induction, female gamete readout, read-out: Female IC50; for HitlevelF: number of replicates with >50% inhibition in the female readout
Method in brief: (§1)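 First, day-14 P. falciparum NF54 gametocytes receive compound for 24 h at 37°C in 1% O2/3% CO2. Next, ookinete medium with Cy3 anti-Pfs25 triggers gametogenesis at 28°C and male exflagellation is imaged. Finally, after 24 h in the dark, Cy3-labelled females are imaged.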

HepG2 cells = experiment: HepG2 cytotoxicity counter-screen; settings: cytotoxic activity against HepG2 cells
[2] = tested on: P. falciparum male gametocytes; experiment: P. falciparum Dual Gamete Formation Assay (PfDGFA), male readout (exflagellation); format: cell-based, Plasmodium falciparum NF54; settings: for Selectivity Ratio M: HepG2 Tox50 versus male IC50; for inhibition at 2 µM / Average inhibition male (%) / % inhibition male (individual replicates) R1 / % inhibition male (individual replicates) R3 / % inhibition male (individual replicates) R4: 24h preincubation with gametocytes; for IC50: PfDGFA, 24 h incubation with gametocytes before induction, exflagellation readout, read-out: Male IC50; for HitlevelM: number of replicates with >50% inhibition in the male readout
Method in brief: as §1

[3] = PfDGFA at 2µM, average of replicates

Row | Compound | Selectivity ratio F [1] | Tox50 (HepG2 cells) [µM] | Selectivity Ratio M [2] | Average inhibition female (%) ([1]; 2µM, average of replicates) | % inhibition female (individual replicates) R1 ([1]; 2µM, replicate R1) [%] | % inhibition female (individual replicates) R3 ([1]; 2µM, replicate R3) [%] | % inhibition female (individual replicates) R4 ([1]; 2µM, replicate R4) [%] | IC50 [1] [µM] | Average inhibition male (%) ([2]; 2µM, average of replicates) | IC50 [2] [µM] | Average inhibition female (%) [1, 3] [%] | % inhibition female (individual replicates) R1 ([1]; PfDGFA at 2µM, replicate R1) [%] | % inhibition female (individual replicates) R3 ([1]; PfDGFA at 2µM, replicate R3) [%] | % inhibition female (individual replicates) R4 ([1]; PfDGFA at 2µM, replicate R4) [%] | HitlevelF ([1]; 2µM) | Average inhibition male (%) [2, 3] [%] | % inhibition male (individual replicates) R1 ([2]; PfDGFA at 2µM, replicate R1) [%] | % inhibition male (individual replicates) R3 ([2]; PfDGFA at 2µM, replicate R3) [%] | % inhibition male (individual replicates) R4 ([2]; PfDGFA at 2µM, replicate R4) [%] | HitlevelM ([2]; 2µM) | also measured
1 | COCCCNC(=S)NN=C(C)c1ccccn1 [TCMDC-137907] | 1.2 | 0.48 | 1.14 |  |  |  |  |  |  |  |  |  |  |  |  |  |  |  |  |  | inhibition at 2 µM ([1]; Plasmodium falciparum, 2µM, average of replicates, read-out: Average inhibition female (%)): 95.6%; inhibition at 2 µM ([1]; Plasmodium falciparum, 2µM, replicate R1, read-out: % inhibition female (individual replicates) R1): 95.7%; inhibition at 2 µM ([1]; Plasmodium falciparum, 2µM, replicate R2, read-out: % inhibition female (individual replicates) R2): 91.5%; inhibition at 2 µM ([1]; Plasmodium falciparum, 2µM, replicate R3, read-out: % inhibition female (individual replicates) R3): 100%; inhibition at 2 µM ([1]; Plasmodium falciparum, 2µM, replicate R4, read-out: % inhibition female (individual replicates) R4): 94.6%; IC50 ([1]; Plasmodium falciparum): 0.4 µM; inhibition at 2 µM ([2]; Plasmodium falciparum, 2µM, average of replicates, read-out: Average inhibition male (%)): 100%; inhibition at 2 µM ([2]; Plasmodium falciparum, 2µM, replicate R1, read-out: % inhibition male (individual replicates) R1): 99.7%; inhibition at 2 µM ([2]; Plasmodium falciparum, 2µM, replicate R2, read-out: % inhibition male (individual replicates) R2): 100%; inhibition at 2 µM ([2]; Plasmodium falciparum, 2µM, replicate R3, read-out: % inhibition male (individual replicates) R3): 97.8%; inhibition at 2 µM ([2]; Plasmodium falciparum, 2µM, replicate R4, read-out: % inhibition male (individual replicates) R4): 103%; IC50 ([2]; Plasmodium falciparum): 0.42 µM
2 | CN(CCCNCc1ccc2ccccc2c1)CCCNCc1ccc2ccccc2c1.Cl [TCMDC-137908] | 3.92 | 4.12 | 8.05 | 40.6 | 36.9 | 42.1 | 30.7 | 1.05 | 96.1 | 0.51 |  |  |  |  |  |  |  |  |  |  | % inhibition male (individual replicates) R1 ([2]; 2µM, replicate R1): 95.1%; % inhibition male (individual replicates) R3 ([2]; 2µM, replicate R3): 92.7%; % inhibition male (individual replicates) R4 ([2]; 2µM, replicate R4): 98.2%
3 | CCOc1cc(CNCCCCCCNCc2cc(OCC)c(OCC)c3ccccc23)c2ccccc2c1OCC.CS(=O)(=O)O [TCMDC-137939] | 0.94 | 2.02 | 1.34 |  |  |  |  | 2.16 |  | 1.51 | 45.9 | 31.3 | 12.7 | 67.3 | 2 | 69.9 | 72.9 | 51.6 | 76.9 | 4 | 
4 | COc1cc2ccccc2cc1CCNCCCCNCCc1cc2ccccc2cc1OC.CS(=O)(=O)O [TCMDC-137944] | 1.14 | 3.94 | 3.14 | 77.7 | 77.0 | 80.9 | 77.1 | 3.47 | 96.6 | 1.26 |  |  |  |  |  |  |  |  |  |  | % inhibition male (individual replicates) R1 ([2]; 2µM, replicate R1): 97.3%; % inhibition male (individual replicates) R3 ([2]; 2µM, replicate R3): 93.0%; % inhibition male (individual replicates) R4 ([2]; 2µM, replicate R4): 97.4%
5 | CCCOc1ccc(CCNCCCCNCCc2ccc(OCCC)c3ccccc23)c2ccccc12.CS(=O)(=O)O [TCMDC-137952] | 2.17 | 2.96 | 3.16 | 89.4 | 87.3 | 99.5 | 93.9 | 1.37 | 93.9 | 0.94 |  |  |  |  |  |  |  |  |  |  | % inhibition male (individual replicates) R1 ([2]; 2µM, replicate R1): 96.8%; % inhibition male (individual replicates) R3 ([2]; 2µM, replicate R3): 100.0%; % inhibition male (individual replicates) R4 ([2]; 2µM, replicate R4): 100.7%
6 | COc1ccc2c(OC)c(CNCCCCCCNCc3ccc4cc(OC)ccc4c3OC)ccc2c1.CS(=O)(=O)O [TCMDC-137953] | 2.26 | 3.73 | 2 |  |  |  |  | 1.65 |  | 1.87 | 35.6 | 27.7 | 6.7 | 49.3 | 1 | 70.9 | 72.9 | 42.7 | 88.9 | 3 | 
7 | COc1ccc(CCNCCCCNCCc2ccc(OC)c3ccccc23)c2ccccc12.CS(=O)(=O)O [TCMDC-137961] | 1.85 | 3.73 | 3.28 | 83.6 | 91.7 | 93.4 | 91.7 | 2.02 | 90.0 | 1.14 |  |  |  |  |  |  |  |  |  |  | % inhibition male (individual replicates) R1 ([2]; 2µM, replicate R1): 98.7%; % inhibition male (individual replicates) R3 ([2]; 2µM, replicate R3): 95.1%; % inhibition male (individual replicates) R4 ([2]; 2µM, replicate R4): 92.4%
8 | CC(C)Oc1ccc2ccccc2c1CNCCCCCCNCc1c(OC(C)C)ccc2ccccc12.CS(=O)(=O)O [TCMDC-137965] | 1.26 | 3.22 | 1.91 |  |  |  |  | 2.56 |  | 1.69 | 48.8 | 46.4 | 51.5 | 48.5 | 1 | 73.8 | 86.0 | 74.0 | 91.3 | 3 | 
9 | CCCOc1ccc2ccccc2c1CNCCCCCCNCc1c(OCCC)ccc2ccccc12.CS(=O)(=O)O [TCMDC-137966] | 1.2 | 3.43 | 1.77 |  |  |  |  | 2.86 |  | 1.94 | 25.2 | 28.6 | 7.7 | 20.1 | 0 | 79.0 | 79.2 | 56.4 | 86.2 | 4 | 
10 | COc1ccccc1-c1nc2c(ccc3nc(N)nc(N)c32)[nH]1 [TCMDC-137976] | 0.68 | 2.07 | 1.2 |  |  |  |  | 3.03 |  | 1.72 | 41.0 | 50.1 | 49.2 | 39.4 | 1 | 63.5 | 72.4 | 76.7 | 81.8 | 3 | 
